For ten compounds, Activity, IC50 and inhibition results are on record in ChEMBL document CHEMBL1123906, “Folate analogues. 30. Synthesis and biological evaluation of N10-propargyl-5,8-dideaza-5,6,7,8-tetrahydrofolic acid and related compounds” (J Med Chem, 1987).

Some results are limits rather than exact numbers.

The subject of experiment [1] is Lacticaseibacillus casei. As to the kind of experiment: Antimicrobial activity against Lactobacillus casei MTX-resistant strain. Type of experiment: functional. Set-up: unit not given here.
Experiment [2] deals with Lacticaseibacillus casei. As to the kind of experiment: Antimicrobial activity against Lactobacillus casei strain ATCC 7469. Type of experiment: functional. Set-up: unit not given here.
Experiment [3] relates to Enterococcus faecium. The experiment in a line: Antimicrobial activity against Streptococcus faecium strain ATCC 8043. It counts as functional. The arrangement: unit not given here.
In experiment [4] the test system is Enterococcus faecium. The experiment in a line: Antimicrobial activity against Streptococcus faecium strain, MTX-resistant. Type of experiment: functional. Set-up: unit not given here.
For experiment [5], the target named is Dihydrofolate reductase (Lactobacillus casei, UniProt P00381). The experiment in a line: Evaluated for the inhibition of dihydrofolate reductase in Lactobacillus casei. Set-up: species or system Lacticaseibacillus casei.
Experiment [6] has as its target T1, Thymidylate synthase (Lactobacillus casei, UniProt P00469).
T1 sequence (P00469 whole entry): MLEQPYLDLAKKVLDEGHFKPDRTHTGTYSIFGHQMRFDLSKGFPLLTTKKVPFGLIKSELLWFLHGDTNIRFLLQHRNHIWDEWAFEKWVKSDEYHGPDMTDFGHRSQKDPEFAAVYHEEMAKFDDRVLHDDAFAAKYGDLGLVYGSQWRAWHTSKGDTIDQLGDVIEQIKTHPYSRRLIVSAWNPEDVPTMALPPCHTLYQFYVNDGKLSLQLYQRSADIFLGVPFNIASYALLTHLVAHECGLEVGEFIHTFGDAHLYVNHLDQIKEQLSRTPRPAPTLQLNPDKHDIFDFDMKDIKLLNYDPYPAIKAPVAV
The experiment in a line: Evaluated for the inhibition of thymidylate synthase in Lactobacillus casei. The arrangement: species or system Lacticaseibacillus casei.

In experiment [7] the test system is Enterococcus faecium. The experiment in a line: Antimicrobial activity against Streptococcus faecium strain, ATCC 8043. Type of experiment: functional.
For experiment [8], the target named is T2, Thymidylate synthase (Mus musculus, UniProt P07607). As to the kind of experiment: Evaluated for the inhibition of thymidylate synthase in intact L1210 cells. It counts as cell-based.
The target in experiment [9] is T2, Thymidylate synthase. The experiment in a line: Evaluated for the inhibition of thymidylate synthase in permeabilised L1210 cells. It counts as cell-based.
Experiment [10] concerns Thymidylate synthase (Bos taurus). The experiment in a line: Inhibition of Calf thymus thymidylate synthase in the presence of 20 uM.
The target in experiment [11] is T3, Dihydropteroate synthase (Escherichia coli K-12) (UniProt P0AC13).
T3 sequence (whole entry): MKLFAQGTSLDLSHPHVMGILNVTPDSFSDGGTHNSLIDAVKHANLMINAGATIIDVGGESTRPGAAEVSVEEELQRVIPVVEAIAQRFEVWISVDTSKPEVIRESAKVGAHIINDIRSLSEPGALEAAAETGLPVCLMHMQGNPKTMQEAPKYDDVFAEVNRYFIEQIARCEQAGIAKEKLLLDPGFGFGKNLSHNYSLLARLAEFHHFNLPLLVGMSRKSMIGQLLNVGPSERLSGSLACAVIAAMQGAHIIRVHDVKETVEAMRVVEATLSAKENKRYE
The experiment in a line: Inhibition of E. uM. To be noted: concentration not given here.

Sequence of Dihydrofolate reductase (P00381 whole entry): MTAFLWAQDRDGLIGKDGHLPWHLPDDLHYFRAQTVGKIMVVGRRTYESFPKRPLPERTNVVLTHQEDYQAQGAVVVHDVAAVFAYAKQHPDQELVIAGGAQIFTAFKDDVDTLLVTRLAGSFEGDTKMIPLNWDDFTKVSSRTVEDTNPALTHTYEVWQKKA
T2 sequence (P07607 whole entry): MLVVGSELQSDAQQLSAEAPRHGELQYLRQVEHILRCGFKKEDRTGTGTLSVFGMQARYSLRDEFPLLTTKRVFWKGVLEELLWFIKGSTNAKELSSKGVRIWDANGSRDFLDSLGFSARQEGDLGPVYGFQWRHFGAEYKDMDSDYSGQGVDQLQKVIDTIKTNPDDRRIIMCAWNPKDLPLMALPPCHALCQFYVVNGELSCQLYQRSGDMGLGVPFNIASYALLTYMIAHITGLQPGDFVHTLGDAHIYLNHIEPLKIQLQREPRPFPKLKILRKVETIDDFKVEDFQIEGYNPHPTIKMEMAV

With `C#CCN(Cc1ccc2[nH]c(N)nc(=O)c2c1)c1ccc(C(=O)NC(CCC(=O)O)C(=O)O)cc1` (configuration not stated), the Activity in experiment [1] is recorded as 6400; in experiment [2], 0.4; in experiment [3], 0.13; in [4], 20.

For the compound `C#CCN(CC1CCc2nc(N)nc(O)c2C1)c1ccc(C(=O)O)cc1` (configuration not stated), the IC50 in [5] was 190 µM; in experiment [6], 610 µM. Besides, the Activity in experiment [1] is on record as more than 20000; in [2], 1000; in [3], 26; in [4], 14000.

As for `Nc1nc(O)c2c(n1)CCC(CNc1ccc(C(=O)NC(CCC(=O)O)C(=O)O)cc1)C2` (configuration not stated), the IC50 in experiment [5] was 30 µM; in experiment [6], more than 280 µM; in experiment [8] it was 1000 µM; in [9], 12 µM. The Activity is listed as more than 20000 in experiment [1], 7.5 in [2], 140 in [7] and 900 in experiment [4].

As to `C#CCN(CC1CCc2nc(N)nc(O)c2C1)c1ccc(C(=O)NC(CCC(=O)O)C(=O)O)cc1` (configuration not stated), the IC50 is 10 µM in experiment [5], 23 µM in [6], 1100 µM in [8] and 11 µM in [9]. In addition, the Activity is recorded as more than 10000 in experiment [1], 4.7 in experiment [2], 1.8 in experiment [7] and 350 in experiment [4]. In addition, the inhibition in experiment [10] is 50%.

With `CN(CC1CCc2nc(N)[nH]c(=O)c2C1)c1ccc(C(=O)NC(CCC(=O)O)C(=O)O)cc1` (configuration not stated), the figures for the IC50 in [5] and in experiment [6] were 16 µM and 120 µM, respectively.

As for `Nc1nc(O)c2c(n1)CCC(CNc1ccc(C(=O)O)cc1)C2` (configuration not stated), the concentration for half-maximal inhibition (IC50) in experiment [5] and in [6] was more than 200 µM each time. For the same compound, the Activity in experiment [2] is more than 20000; in experiment [3], 400; in experiment [4], more than 20000.

As to `CN(CC1CCc2nc(N)nc(O)c2C1)c1ccc(C(=O)NC(CCC(=O)O)C(=O)O)cc1` (configuration not stated), the inhibition in experiment [11] turned out to be 35.1%. Besides, the Activity in experiment [1] is given as more than 20000; in experiment [2], 2.8; in [7] it was 0.57; in experiment [4], 13.

In the case of `Nc1nc(O)c2c(n1)CCC(CBr)C2` (configuration not stated), the inhibition in experiment [11] stood at 7%.

`CN(CC1CCc2nc(N)nc(O)c2C1)c1ccc(C(=O)O)cc1` (configuration not stated): the IC50 in [5] and in experiment [6] was more than 200 µM each time. Also, the Activity was more than 20000 in [1], 15800 in experiment [2], 5.2 in [3] and 8200 in experiment [4].

In the case of `Nc1nc(O)c2c(n1)CCC(CO)C2` (configuration not stated), the inhibition in experiment [11] is 1.3%.
